From patent publication US7105664B2, “5-Halogen-6-phenyl-7-fluoroalkylamino-triazolopyrimidines as fungicides” (BASF Aktiengesellschaft, priority 2001, dated 2006)

Experiments:
Pyricularia oryzae = format: in vivo; settings: 200 ppm, rice seedlings variety Tai-Nong 67, protective; untreated plants infected to 90%
[1] = test system: Blumeria graminis f. sp. tritici; test: Control of powdery mildew on wheat, Comparison Trial 2; format: in vivo; settings: wheat variety Kanzler, untreated plants infected to 100%

| SMILES | infection (% diseased leaf area) (Pyricularia oryzae) [%] | infection (% diseased leaf area) ([1]; 50 ppm) [%] | infection (% diseased leaf area) ([1]; 200 ppm) [%] |
| --- | --- | --- | --- |
| Fc1cc(F)c(-c2c(Cl)nc3ncnn3c2NCC(F)(F)F)c(F)c1 [A] | 60 |  |  |
| Fc1cccc(Cl)c1-c1c(Cl)nc2ncnn2c1NCC(F)(F)F [B] | 10 |  |  |
| CC(Nc1c(-c2c(F)cccc2F)c(Cl)nc2ncnn12)C(F)(F)F (stereo not drawn) [C] | 20 |  |  |
| COc1cc(F)c(-c2c(Cl)nc3ncnn3c2NCC(F)(F)F)c(F)c1 [D] |  | 80 | 60 |
| COc1cc(F)c(-c2c(Cl)nc3ncnn3c2NC(C)C(F)(F)F)c(F)c1 (stereo not drawn) [E] |  | 80 | 80 |
| Fc1cc(F)c(-c2c(Cl)nc3ncnn3c2NCC(F)C(F)(F)F)c(F)c1 (stereo not drawn) [I-1] | 3 |  |  |
| FC(F)=C(F)CCNc1c(-c2c(F)cc(F)cc2F)c(Cl)nc2ncnn12 [I-2] | 3 |  |  |
| CC(CNc1c(-c2c(F)cc(F)cc2F)c(Cl)nc2ncnn12)CC(F)(F)F (stereo not drawn) [I-3] | 3 |  |  |
| COc1cc(F)c(-c2c(Cl)nc3ncnn3c2NCCC(F)(F)F)c(F)c1 [I-7] |  | 7 | 3 |
